Laboratory results reported in ChEMBL document CHEMBL4433197, “Nuclear Factor Erythroid 2-Related Factor 2 (Nrf2) Inhibition: An Emerging Strategy in Cancer Therapy” (J Med Chem, 2019).

Molecular target: T1, Nuclear factor erythroid 2-related factor 2 (Mus musculus, UniProt Q60795)
T1 sequence (Q60795 whole entry): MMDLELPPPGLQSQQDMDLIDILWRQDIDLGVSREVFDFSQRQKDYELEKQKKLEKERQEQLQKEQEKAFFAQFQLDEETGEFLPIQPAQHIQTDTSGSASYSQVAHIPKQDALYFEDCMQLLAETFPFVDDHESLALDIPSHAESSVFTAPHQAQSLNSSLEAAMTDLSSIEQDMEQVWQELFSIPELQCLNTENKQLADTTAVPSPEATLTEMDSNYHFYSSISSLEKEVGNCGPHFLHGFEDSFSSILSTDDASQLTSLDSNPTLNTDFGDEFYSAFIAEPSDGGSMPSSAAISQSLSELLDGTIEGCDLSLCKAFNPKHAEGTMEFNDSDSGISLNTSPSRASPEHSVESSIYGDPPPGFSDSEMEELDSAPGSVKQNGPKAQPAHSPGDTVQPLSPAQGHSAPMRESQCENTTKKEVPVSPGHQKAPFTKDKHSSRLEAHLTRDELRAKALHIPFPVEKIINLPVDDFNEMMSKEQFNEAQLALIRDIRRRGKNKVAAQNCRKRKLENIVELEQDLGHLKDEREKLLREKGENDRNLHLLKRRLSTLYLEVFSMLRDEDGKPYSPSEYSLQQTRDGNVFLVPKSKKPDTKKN
Experiment: Inhibition of Nrf2 in mouse MYC-3T3-ARELUC cells harboring a stably integrated ARE by firefly luciferase reporter gene assay
Type: cell-based

Compound: Fc1ccc(-c2csc3ncnc(NCc4ccc5c(c4)OCO5)c23)cc1
- EC50: 650 nM
